The target in assay [1] is T1, β5 subunit of the human constitutive proteasome (CPS) (Homo sapiens, UniProt P28074).
T1 construct: purchased Boston Biochem E-360
Put plainly: β5 inhibition assay, human constitutive proteasome (Suc-LLVY-AMC). It is filed as biochemical. As to conditions: IC50 class, Suc-LLVY-AMC substrate. On the procedure:
The enzymatic activity of the β5 subunit of the human constitutive proteasome (CPS) is analyzed. In another assay, which differs from the assay of the human constitutive proteasome only in using the human immunoproteasome (IPS) the enzymatic activity of the β5 subunit of the human immunoproteasome (IPS) is analyzed. […] Inhibition is indicated as IC50 [nM] (“-”=not measured).

Assay [2] addresses T2, β5 subunit of the human immunoproteasome (IPS) (Homo sapiens, UniProt P28062).
T2 construct: purchased Boston Biochem E-370
The experiment in a line: β5 inhibition assay, human immunoproteasome (Suc-LLVY-AMC). It is filed as biochemical. To be noted: IC50 class, Suc-LLVY-AMC substrate. In outline: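 Human immunoproteasome (1 nM final) was preincubated 10 min at RT with compound in 100 mM HEPES pH 7.5, 50 mM NaCl, 0.02% SDS, 1 mM DTT. Suc-LLVY-AMC (22.6 μM final) was then added for 4 h at RT in the dark. After stopping with 1 μM bortezomib, AMC fluorescence was read (ex 355/em 460 nm).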

Another assay concerns HT-29 cells. Put plainly: CellTiter-Glo luminescent cell viability assay with HT-29 cells (72h incubation). It is filed as cell-based, human. As to conditions: Homo sapiens, HT-29, HT29 cells, read-out: CTG HT29. Put shortly: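 400 cells per well in DMEM/10% FCS were dosed after 24 h and kept 72 h at 37 °C, 5% CO2. ATP-based luminescence (CellTiter-Glo) normalized to DMSO and 10 μM staurosporine controls; IC50 by dose-response fit.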
A general note: ATP-based viability assays read luminescence as a measure of living cells.

In assay [3] the test system is A549 (human lung carcinoma cell line). The experiment in a line: Glo assay of A549 cells (Table 3; ProteasomeGlo plating scheme). In kind it is cell-based. As to conditions: Homo sapiens; A549 cells; read-out: PGLo A549. Put shortly: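 Luminescent read-out of cellular chymotrypsin-like proteasome activity: cells exposed to compound 105 min at 37° C., 5% CO2, then given Suc-LLVY-Glo reagent, shaken 2-5 min and kept dark 10-15 min before reading. Values are IC50 [nM].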

Turning to `Cc1ccc2cc1CNC(=O)[C@H](CCc1ccccc1)NC(=O)[C@@H](NC(=O)OCc1ccccc1)CCCC(=O)N1CCCC3(CC(C3)O2)C1` [Compound 283, benzyl ((7S,10S)-34-methyl-6,9,14-trioxo-7-phenethyl-2-oxa-5,8-diaza-15(3,1)-piperidina-3(1,3)-benzena-1(1,3)-cyclobutanapentadecaphane-10-yl)carbamate], the IC50 is 500 to 1000 nM in assay [1], less than 100 nM in assay [2], 100 to 500 nM in the assay with HT-29 cells and 1000 to 5000 nM in assay [3].
For `Cc1ccc2cc1CNC(=O)[C@H](CCc1ccccc1)NC(=O)[C@@H](NC(=O)Cc1csc(N)n1)CC(=O)N1CCCC(CCO2)C1` (stereo partly drawn) [Compound 302, 2-(2-aminothiazol-4-yl)-N-((9S,12S)-5^4-methyl-8,11,14-trioxo-9-phenethyl-4-oxa-7,10-diaza-1(3,1)-piperidina-5(1,3)-benzenacyclotetradecaphane-12-yl)acetamide] the same measures were less than 100 nM, less than 100 nM, less than 100 nM and less than 100 nM.
For `CCOC(C(=O)N[C@H]1CC(=O)N2CCCC(CCOc3ccc(C)c(c3)CNC(=O)[C@H](CCc3ccccc3)NC1=O)C2)c1ccc(N)cc1` (stereo partly drawn) [Compound 345, 2-(4-aminophenyl)-2-ethoxy-N-((9S,12S)-5^4-methyl-8,11,14-trioxo-9-phenethyl-4-oxa-7,10-diaza-1(3,1)-piperidina-5(1,3)-benzenacyclotetradecaphane-12-yl)acetamide] the same measures were less than 100 nM, less than 100 nM, less than 100 nM and 100 to 500 nM.
For `CC(=O)N[C@H]1CC(=O)N2CCCC(CCOc3ccc(C)c(c3)CNC(=O)C(c3cn(C)cn3)NC1=O)C2` (stereo partly drawn) [Compound 557, N-((12S)-5^4-methyl-9-(1-methyl-1H-imidazol-4-yl)-8,11,14-trioxo-4-oxa-7,10-diaza-1(3,1)-piperidina-5(1,3)-benzenacyclotetradecaphane-12-yl)acetamide], the IC50 in assay [1] is less than 100 nM; in assay [2], less than 100 nM; in the assay on HT-29 cells, 100 to 500 nM; in assay [3] it was less than 100 nM.
As to `Cc1nc(C2NC(=O)[C@@H](NC(=O)OCc3ccccc3)CC(=O)N3CCCC(CCOc4ccc(C)c(c4)CNC2=O)C3)co1` (stereo partly drawn) [Compound 512, benzyl ((12S)-5^4-methyl-9-(2-methyloxazol-4-yl)-8,11,14-trioxo-4-oxa-7,10-diaza-1(3,1)-piperidina-5(1,3)-benzenacyclotetradecaphane-12-yl)carbamate], the IC50 (in assay [1]; in assay [2]; with HT-29 cells; in assay [3]) was less than 100 nM throughout.
In the case of `CC(=O)N[C@H]1CC(=O)N2CCCC(CCOc3ccc(C)c(c3)CNC(=O)C(c3cc(C)n(C)n3)NC1=O)C2` (stereo partly drawn) [Compound 561, N-((12S)-9-(1,5-dimethyl-1H-pyrazol-3-yl)-5^4-methyl-8,11,14-trioxo-4-oxa-7,10-diaza-1(3,1)-piperidina-5(1,3)-benzenacyclotetradecaphane-12-yl)acetamide], the IC50 (in assay [1]; in assay [2]; in the assay on HT-29 cells; in assay [3]) was less than 100 nM throughout.
In the case of `CO[C@@H](C(=O)N[C@H]1CC(=O)N2CCCC(CCOc3ccc(C)c(c3)CNC(=O)C(c3cnn(C)c3)NC1=O)C2)c1ccccc1` (stereo partly drawn) [Compound 361, (2R)-2-methoxy-N-((12S)-5^4-methyl-9-(1-methyl-1H-pyrazol-4-yl)-8,11,14-trioxo-4-oxa-7,10-diaza-1(3,1)-piperidina-5(1,3)-benzenacyclotetradecaphane-12-yl)-2-phenylacetamide], the IC50 was less than 100 nM in assay [1], less than 100 nM in assay [2], less than 100 nM in the assay on HT-29 cells and 100 to 500 nM in assay [3].
For the compound `Cc1ccc2cc1CNC(=O)C(CCc1ccncc1)NC(=O)[C@@H](NC(=O)C1(c3ccc(N)cc3)CC1)CC(=O)N1CCCC(CCO2)C1` (stereo partly drawn) [Compound 343, 1-(4-aminophenyl)-N-((12S)-5^4-methyl-8,11,14-trioxo-9-(2-(pyridin-4-yl)ethyl)-4-oxa-7,10-diaza-1(3,1)-piperidina-5(1,3)-benzenacyclotetradecaphane-12-yl)cyclopropane-1-carboxamide], the IC50 (in assay [1]; in assay [2]; in the assay with HT-29 cells; in assay [3]) was less than 100 nM in each case.
In the case of `COC(=O)N(CC1NC(=O)[C@@H](NC(C)=O)CC(=O)N2CCCC(CCOc3ccc(C)c(c3)CNC1=O)C2)c1ccccc1` (stereo partly drawn) [Compound 560, methyl (((12S)-12-acetamido-5^4-methyl-8,11,14-trioxo-4-oxa-7,10-diaza-1(3,1)-piperidina-5(1,3)-benzenacyclotetradecaphane-9-yl)methyl)(phenyl)carbamate], the IC50 in assay [1] is less than 100 nM; in assay [2] it was less than 100 nM; with HT-29 cells, less than 100 nM; in assay [3], 100 to 500 nM.
As for `CC(=O)N[C@H]1CC(=O)N2CCCC(CCOc3ccc(C)c(c3)CNC(=O)C(c3cnn(CCOCCOCCOCCN)c3)NC1=O)C2` (stereo partly drawn) [Compound 566, N-((12S)-9-(1-(2-(2-(2-(2-aminoethoxy)ethoxy)ethoxy)ethyl)-1H-pyrazol-4-yl)-5^4-methyl-8,11,14-trioxo-4-oxa-7,10-diaza-1(3,1)-piperidina-5(1,3)-benzenacyclotetradecaphane-12-yl)acetamide], the IC50 is less than 100 nM in assay [1], less than 100 nM in assay [2], 100 to 500 nM in the assay with HT-29 cells and less than 100 nM in assay [3].
For the compound `Cc1ccc2cc1CNC(=O)C(CCc1ccc(S(=O)(=O)O)cc1)NC(=O)[C@@H](NC(=O)OCc1ccccc1)CC(=O)N1CCCC(CCO2)C1` (stereo partly drawn) [Compound 509, 4-(2-((12S)-12-(((benzyloxy)carbonyl)amino)-5^4-methyl-8,11,14-trioxo-4-oxa-7,10-diaza-1(3,1)-piperidina-5(1,3)-benzenacyclotetradecaphane-9-yl)ethyl)benzenesulfonic acid], the IC50 in assay [1] is less than 100 nM; in assay [2] it was less than 100 nM; in the assay on HT-29 cells, 100 to 500 nM; in assay [3], less than 100 nM.
On to `Cc1ccc2cc1CNC(=O)[C@H](CCc1ccccc1)NC(=O)[C@@H](NC(=O)OCc1ccccc1)CC(=O)N1CCCC3(CC(C3)O2)C1` [Compound 300], for which the IC50 is 100 to 500 nM in assay [1], less than 100 nM in assay [2], 100 to 500 nM in the assay on HT-29 cells and 1000 to 5000 nM in assay [3].
As to `CC(=O)N[C@H]1CC(=O)N(C)CCCCOc2ccc(C)c(c2)CNC(=O)[C@H](CCc2ccccc2)NC1=O` [Compound 296, N-(1^4,7-dimethyl-8,11,14-trioxo-13-phenethyl-2-oxa-7,12,15-triaza-1(1,3)-benzenacyclohexadecaphane-10-yl)acetamide], the IC50 lay in the range of 500 to 1000 nM in assay [1], 100 to 500 nM in assay [2], 100 to 500 nM in the assay with HT-29 cells and 500 to 1000 nM in assay [3].
On to `Cc1ccc2cc1CNC(=O)[C@H](CCc1ccccc1)NC(=O)[C@@H](NC(=O)OCc1ccccc1)CCC(=O)N1CCCC3(CC(C3)O2)C1` [Compound 301, benzyl ((7S,10S)-3^4-methyl-6,9,13-trioxo-7-phenethyl-2-oxa-5,8-diaza-14(3,1)-piperidina-3(1,3)-benzena-1(1,3)-cyclobutanatetradecaphane-10-yl)carbamate], for which the IC50 fell in the range of 1000 to 5000 nM in assay [1], 500 to 1000 nM in assay [2], 100 to 500 nM in the assay with HT-29 cells and 1000 to 5000 nM in assay [3].
For `CC(=O)N[C@H]1CC(=O)N2CCCC(CCOc3ccc(C)c(c3)CNC(=O)C(c3cnn(-c4ccccc4)c3)NC1=O)C2` (stereo partly drawn) [Compound 559, N-((12S)-5^4-methyl-8,11,14-trioxo-9-(1-phenyl-1H-pyrazol-4-yl)-4-oxa-7,10-diaza-1(3,1)-piperidina-5(1,3)-benzenacyclotetradecaphane-12-yl)acetamide], the IC50 in assay [1] is less than 100 nM; in assay [2], less than 100 nM; with HT-29 cells, less than 100 nM; in assay [3], 100 to 500 nM.
Regarding `Cc1cc2cc(c1C)CNC(=O)C(c1cnn(C)c1)NC(=O)CCC(=O)N1CCCC(CCO2)C1` (centres unmarked) [Compound 355, 5^4,5^5-dimethyl-9-(1-methyl-1H-pyrazol-4-yl)-4-oxa-7,10-diaza-1(3,1)-piperidina-5(1,3)-benzenacyclotetradecaphane-8,11,14-trione], the IC50 in assay [1] is 1000 to 5000 nM; in assay [2] it was less than 100 nM; with HT-29 cells it was 1000 to 5000 nM; in assay [3], more than 5000 nM.
Take `Cc1ccc2cc1CNC(=O)C(c1cnn(C)c1)NC(=O)[C@@H](NC(=O)CN1CCCC1)CC(=O)N1CCCC(CCO2)C1` (stereo partly drawn) [Compound 358, N-((12S)-5^4-methyl-9-(1-methyl-1H-pyrazol-4-yl)-8,11,14-trioxo-4-oxa-7,10-diaza-1(3,1)-piperidina-5(1,3)-benzenacyclotetradecaphane-12-yl)-2-(pyrrolidin-1-yl)acetamide]: the IC50 is 100 to 500 nM in assay [1], less than 100 nM in assay [2], 100 to 500 nM with HT-29 cells and less than 100 nM in assay [3].

The values above are taken from patent US20240415819A1, “MACROCYCLIC COMPOUNDS AS PROTEASOME SUBUNIT BETA TYPE-5 INHIBITORS” (Lead Discovery Center GmbH, priority 2021, published 2024).
